According to patent US20070148660A1, “Treatment of maladaptive substance use with H-ras antagonists” (The Regents of the University of California, priority 2005, published 2007):
Values belong to the molecule of their own block, whether it stands above or below them.

Assays:
Ras = Ras activity assay (Raf-1-Ras binding domain GST-agarose), hippocampal slices; type: cell-based, mouse
Procedure: The treated hippocampal homogenates (250 μg) were incubated with […] of Raf-1-Ras binding domain GST-agarose for 45 min at 4° C. while rotating, as per manufacturer's instructions. […] Results were quantified by NIH Image 1.61.

NMDAR = assay: NMDAR-mediated EPSCs, whole-cell voltage clamp, hippocampal CA1; type: cell-based, mouse; conditions: for effect on the ethanol-induced inhibition of NMDAR-mediated EPSCs: inhibitor applied before ethanol, hippocampal slices
Procedure: Electrophysiological recordings were performed in C57BL/6J mice ranging from P21 to P26. Briefly, mice were anesthetized with halothane and decapitated as per University of California, San Francisco animal care guidelines. Horizontal sections of the hippocampus ([…]) were prepared with a vibratome (Leica, Nussloch, Germany). Slices were placed in a holding chamber and allowed to recover for at least 1 hr before being placed in the recording chamber and superfused with aCSF saturated with 95% O2/5% CO2 and containing (in mM): 119 NaCl, 1.6 KCl, 1.0 NaH2PO4, 1.3 MgCl2 (for EPSCs) or 0.01 MgCl2 (for field excitatory postsynaptic potentials (fEPSPs)), 2.5 CaCl2, 26.2 NaHCO3 and 11 glucose. Picrotoxin (100 μM) was added to block gamma-aminobutyric acid-A (GABAA) receptor-mediated inhibitory synaptic transmission, and CNQX (for EPSCs) or NBQX (for fEPSPs) (10 μM) was added to block α-amino-3-hydroxy-5-methyl-4-isoxalepropionate (AMPA)/Kainate receptors. Cells were visualized using infrared differential interference contrast video microscopy.
Whole-cell voltage clamp-recordings were made using an Axopatch ID or a MultiClamp 700A amplifier (Axon Instruments, Union City, Calif.). Electrodes (3.5-5.0 MΩ) contained (in mM): 120 Cesium methansulfonate, 20 HEPES, 0.4 EGTA, 2.8 NaCl, 5 TEA-Cl, 2.5 MgATP, and 0.25 NaGTP (pH 7.2-7.3), buffer at 270-285 mOsm. Series resistance (10-30 MΩ) and input resistance were monitored on-line with a 4 mV depolarizing step (50 ms) given just after every afferent stimulus. Recordings from the CA1 region of the hippocampus were obtained with a bipolar stimulating electrode that was placed 100-300 μm rostral to the recording electrode and was used to stimulate excitatory afferents at 0.1 Hz. Neurons were voltage-clamped at +40 mV to evoke NMDAR-mediated EPSCs. At this potential, NMDARs have a maximal open probability and the Mg^2+ block is removed. EPSCs were filtered at 2 kHz, digitized at 5-10 kHz and collected on-line using Igor Pro software (Wavemetrics, Lake Oswego, Oreg.) or pClamp 9 (Axon Instruments, Union City, Calif.). NMDAR example traces were constructed by averaging 20 EPSCs (200 sec) elicited at +40 mV during baseline, ethanol application, drug application or drug application with ethanol. To calculate the decay time (τ), Igor Pro software was used to fit exponential decay curves to averaged NMDAR-mediated EPSCs using the formula: y=A1exp(−invTau1*x)+A2exp(−invTau2X).

[1] = biological target: Raf-1-Ras binding domain GST agarose (UniProt P04049); assay: pull-down of hippocampal homogenates with Raf-1-Ras binding domain GST-agarose, Western blot with pan anti-Ras; ratio of Ras-GTP over total Ras, normalized to the control

Ras activity (Ras; 50 mM KCl, 5 min, hippocampal slices): increases Ras activity
Molecule: [Cl-].[K+] [KCl]

Molecule: C[C@H](NC(c1cccc2[nH]c(=O)c(=O)[nH]c12)P(=O)(O)O)c1ccc(Br)cc1 (some centres unmarked) [NVP-AAM077, reference compound]
decrease of NMDAR EPSCs (NMDAR; NVP-AAM077 0.4 μM, n=6): 55±4%
NMDAR-mediated EPSCs in slices first treated with ethanol and ifenprodil (NMDAR; NVP-AAM077 application, data not shown): no effect
weighted decay time (NMDAR; in the presence of NVP-AM077 (0.4 μM), n=6, baseline 43.0±2.1 ms): 68.7 ± 9.4 ms
effect on the ethanol-induced inhibition of NMDAR-mediated EPSCs (NMDAR): occluded

Molecule: CC(C(O)c1ccc(O)cc1)N1CCC(Cc2ccccc2)CC1 (centres unmarked) [ifenprodil, reference compound]
decrease of NMDAR EPSCs (NMDAR; ifenprodil 3 μM, n=5): 37+5%
NMDAR-mediated EPSCs in slices treated with both ethanol and NVP-AAM077 (NMDAR; ifenprodil application, data not shown): further inhibition
weighted decay time (NMDAR; in the presence of ifenprodil (3 μM), n=7, baseline 41.2±3.4 ms): 34.7 ± 4.5 ms
effect on the ethanol-induced inhibition of NMDAR-mediated EPSCs (NMDAR): did not

fold increase of Ras-GTP pulled down, ethanol-treated over control slices [1]: 2 fold
Molecule: GTP-bound active Ras, endogenous in mouse hippocampal slices (from UniProt Q61411 1-186)

Molecule: Tat-peptide: Tat-peptide (YGRKKRRQRRR: SEQ ID NO:2) synthesized by Syn Pep, used as a control
effect on ethanol-mediated increase in endogenous Ras activity (Ras; pre-incubation 2 hrs (Tat-H-Ras DN printed 2 mM, Tat-peptide 2 μM), then 100 mM ethanol 15 min): did not
